The subject of one data set is OVCAR-3. Kind of data set: in vitro ovarian cancer cell growth inhibition (NCI screen).
The next data set relates to HL-60(TB). Briefly: in vitro leukemia cell growth inhibition (NCI screen).
The test system of another data set is HOP-92. Briefly: in vitro non-small cell lung cancer cell growth inhibition (NCI screen).
Another data set concerns LOX1MVI. Kind of data set: in vitro melanoma cell growth inhibition (NCI screen).
The test system of a further data set is K-562. Kind of data set: in vitro leukemia cell growth inhibition (NCI screen).
The subject of another data set is SK-MEL-5. Kind of data set: in vitro melanoma cell growth inhibition (NCI screen).
The subject of another data set is NCI-H460. Briefly: in vitro non-small cell lung cancer cell growth inhibition (NCI screen).
The next data set concerns M19-MEL. Briefly: in vitro melanoma cell growth inhibition (NCI screen).
The test system of the next data set is LXFL 529. Kind of data set: in vitro non-small cell lung cancer cell growth inhibition (NCI screen).
Another data set concerns COLO-205. Briefly: in vitro colon cancer cell growth inhibition (NCI screen).
The next data set relates to MOLT-4. Kind of data set: in vitro leukemia cell growth inhibition (NCI screen).
Another data set relates to SF-539. Briefly: in vitro CNS cancer cell growth inhibition (NCI screen).
For another data set, the system named is NCI-H23. Kind of data set: in vitro non-small cell lung cancer cell growth inhibition (NCI screen).
The subject of another data set is SR. Briefly: in vitro leukemia cell growth inhibition (NCI screen).
Another data set concerns UACC-62. Kind of data set: in vitro melanoma cell growth inhibition (NCI screen).
In the next data set the test system is HCT-15. Kind of data set: in vitro colon cancer cell growth inhibition (NCI screen).
A further data set has as its system HCT-116. The data set is described as above.
In the next data set the test system is DLD-1. The data set is described as above.
Another data set concerns HT 29. The data set is described as above.
A further data set concerns U 251. Briefly: in vitro CNS cancer cell growth inhibition (NCI screen).
The next data set has as its system MALME-3M. Briefly: in vitro melanoma cell growth inhibition (NCI screen).
The next data set has as its system CCRF-CEM. Kind of data set: in vitro leukemia cell growth inhibition (NCI screen).
The test system of a further data set is RXF-393. Kind of data set: in vitro renal cancer cell growth inhibition (NCI screen).
The next data set concerns SF-268. Briefly: in vitro CNS cancer cell growth inhibition (NCI screen).
Another data set has as its system UACC-257. Kind of data set: in vitro melanoma cell growth inhibition (NCI screen).
The next data set concerns NCI-H522. Kind of data set: in vitro non-small cell lung cancer cell growth inhibition (NCI screen).
The subject of another data set is ACHN. Briefly: in vitro renal cancer cell growth inhibition (NCI screen).
The test system of the next data set is OVCAR-4. Briefly: in vitro ovarian cancer cell growth inhibition (NCI screen). The settings on record: OVACR-4.
In the next data set the test system is human tumor cell lines. The data set is classed as cell-based. The conditions noted are these: cancer cell line panel.
A further data set deals with IGROV1. Kind of data set: in vitro ovarian cancer cell growth inhibition (NCI screen).
The subject of another data set is SK-MEL-2. Kind of data set: in vitro melanoma cell growth inhibition (NCI screen).
For the next data set, the system named is M14. The description is as above.
In a further data set the test system is SW 620. Kind of data set: in vitro colon cancer cell growth inhibition (NCI screen).

The structures appear in SMILES notation.

With `Cc1nc2c(n1CC(C)(C)C)C(=O)c1ccccc1C2=O` [Compound 14], the “cytotoxicity log GI50” value in the data set with OVCAR-3 was -4.18 M; in the data set with HL-60(TB), -4.44 M; in the data set on HOP-92, -4.78 M; with LOX1MVI it was -4.25 M; in the data set on K-562, -4.25 M; in the data set on SK-MEL-5, -4.37 M. The “cytotoxicity log GI50” value in the data set on NCI-H460 is reported as -4.23 M.
Consider `CCC(C)Cn1c(C)nc2c1C(=O)c1ccccc1C2=O` (centres unmarked) [Compound 13], for which the “cytotoxicity log GI50” value in the data set with M19-MEL is reported as -4.74 M; in the data set on LXFL 529, -4.77 M; in the data set with HL-60(TB), -5.30 M; in the data set with COLO-205, -4.70 M; in the data set on MOLT-4, -5.54 M; in the data set with SF-539, -4.75 M. Also, the “cytotoxicity log GI50” value is reported as -4.68 M in the data set with NCI-H23; -4.69 M with HOP-92; -4.71 M in the data set with LOX1MVI; -5.55 M in the data set on SR; -5.27 M in the data set on K-562; -4.82 M in the data set on SK-MEL-5. The “cytotoxicity log GI50” value in the data set on UACC-62 was -5.00 M; in the data set on HCT-15 it was -4.76 M; in the data set on NCI-H460, -4.83 M.
As for `CCCC(C)n1c(C)nc2c1C(=O)c1ccccc1C2=O` (centres unmarked) [Compound 9], the “cytotoxicity log GI50” value with HCT-116 is -5.26 M; in the data set with M19-MEL, -4.90 M; in the data set with LXFL 529 it was -4.90 M; with SF-539 it was -4.89 M; in the data set with NCI-H23, -4.81 M; with HOP-92, -4.78 M. In addition, the “cytotoxicity log GI50” value in the data set with DLD-1 is -5.07 M; with HT 29 it was -4.76 M; in the data set with LOX1MVI, -5.06 M; in the data set on K-562, -5.07 M; in the data set on SK-MEL-5, -4.88 M; in the data set on UACC-62, -5.17 M. Further, the figures for the “cytotoxicity log GI50” value in the data set on HCT-15, in the data set with U 251 and in the data set with NCI-H460 were -5.22 M, -4.91 M and -5.34 M, respectively.
Consider `CCC(C)n1c(C)nc2c1C(=O)c1ccccc1C2=O` (centres unmarked) [Compound 6], for which the “cytotoxicity log GI50” value with HCT-116 is -4.50 M; in the data set on M19-MEL, -4.74 M; in the data set with LXFL 529, -4.48 M; in the data set with OVCAR-3, -4.49 M; with HL-60(TB) it was -4.84 M; in the data set with MOLT-4, -4.55 M. Also, the “cytotoxicity log GI50” value in the data set with SF-539 is listed as -4.49 M; in the data set on MALME-3M, -4.49 M; in the data set with NCI-H23 it was -4.48 M; in the data set with HOP-92, -4.66 M; in the data set on DLD-1 it was -4.57 M; in the data set on CCRF-CEM it was -4.43 M. For the same molecule, the “cytotoxicity log GI50” value with LOX1MVI is given as -4.64 M; in the data set with RXF-393, -4.57 M; with K-562 it was -4.47 M; in the data set with SF-268, -4.51 M; in the data set on SK-MEL-5, -4.57 M; in the data set on UACC-62, -4.55 M. Further, the entries for the “cytotoxicity log GI50” value in the data set with UACC-257, in the data set with HCT-15 and with NCI-H460 were -4.55 M, -4.57 M and -4.71 M, respectively.
Regarding `CCCC(C)NC1=C(NC(C)=O)C(=O)c2ccccc2C1=O` (centres unmarked) [Compound 33], the “cytotoxicity log GI50” value is recorded as -4.20 M with M19-MEL; -4.44 M in the data set with MALME-3M; -4.32 M in the data set with HOP-92; -4.19 M in the data set with NCI-H522; -4.13 M with SK-MEL-5.
Take `Cc1nc2c(n1CCO)C(=O)c1ccccc1C2=O` [Compound 16]: the “cytotoxicity log GI50” value with HCT-116 was -4.72 M; in the data set with ACHN it was -4.60 M; in the data set with M19-MEL it was -5.59 M; with OVCAR-3, -4.61 M; with HL-60(TB) it was -4.70 M; in the data set on COLO-205, -4.72 M. In addition, the “cytotoxicity log GI50” value in the data set with MALME-3M is recorded as -4.93 M; in the data set on NCI-H23, -4.82 M; with OVCAR-4 it was -4.58 M; in the data set with IGROV1 it was -4.69 M; with LOX1MVI, -4.63 M; in the data set with SK-MEL-2 it was -4.74 M. Besides, the “cytotoxicity log GI50” value is reported as -4.58 M with SR; -4.59 M in the data set with K-562; -4.67 M in the data set on M14; -4.84 M in the data set on NCI-H522; -4.95 M in the data set on SK-MEL-5; -4.78 M in the data set on UACC-62. The “cytotoxicity log GI50” value in the data set with UACC-257 is -4.78 M. In addition, the “cytotoxicity against tumor cells (in words)” value in the data set with human tumor cell lines is recorded as “comparable to those of compounds 6-14”.
Regarding `O=C1c2ccccc2C(=O)c2[nH]c(Cc3ccc(F)cc3)nc21` [Compound 4c], the “cytotoxicity log GI50” value with ACHN is -4.85 M; in the data set with OVCAR-3 it was -5.27 M; in the data set with MALME-3M, -4.84 M; with SW 620, -4.84 M; with DLD-1, -5.40 M; with OVCAR-4, -4.83 M. Besides, the “cytotoxicity log GI50” value is recorded as -4.90 M in the data set on IGROV1; -4.86 M in the data set on SK-MEL-2; -5.16 M in the data set with RXF-393; -4.82 M in the data set with M14; -5.19 M in the data set on HCT-15.
For the molecule `CC(=O)NC1=C(NCCC(C)C)C(=O)c2ccccc2C1=O` [Compound 35], the “cytotoxicity log GI50” value in the data set with ACHN is recorded as -7.52 M.
`Cc1nc2c(n1CCC(C)C)C(=O)c1ccccc1C2=O` [Compound 11]: the “cytotoxicity log GI50” value with HCT-116 was -5.17 M; with M19-MEL, -4.84 M; in the data set with LXFL 529, -4.88 M; in the data set with HL-60(TB) it was -5.22 M; with COLO-205 it was -4.84 M; in the data set on MOLT-4, -5.08 M. Further, the “cytotoxicity log GI50” value with SF-539 was -4.92 M; in the data set with DLD-1, -4.95 M; with CCRF-CEM it was -4.87 M; in the data set on LOX1MVI, -4.83 M; with SR, -5.33 M; with K-562 it was -5.09 M. For the same molecule, the “cytotoxicity log GI50” value in the data set on SF-268 was -4.84 M; with SK-MEL-5, -4.84 M; in the data set on UACC-62 it was -4.91 M; in the data set with HCT-15 it was -4.93 M; in the data set on U 251, -4.90 M; in the data set with NCI-H460, -5.22 M.
Regarding `CCC(CC)NC1=C(NC(C)=O)C(=O)c2ccccc2C1=O` [Compound 34], the “cytotoxicity log GI50” value in the data set on HOP-92 is reported as -6.47 M.
Consider `CCC(C)CNC1=C(NC(C)=O)C(=O)c2ccccc2C1=O` (centres unmarked) [Compound 37], for which the “cytotoxicity log GI50” value with M19-MEL is on record as -4.68 M; with OVCAR-3, -4.25 M; with MALME-3M, -4.45 M; in the data set on NCI-H23 it was -4.17 M; in the data set with SK-MEL-5 it was -4.50 M.

(Values after US5789431A, “Naphthoquinone antitumor compound and method” (The University of North Carolina at Chapel Hill, priority 1996, dated 1998).)
